The record followed here is article PMC12264794, “Homoleptic complexes of titanium(IV) fused with O^N^O Schiff base derivatives: design, BSA–DNA interaction, molecular docking, DFT and cytotoxicity” (RSC Advances, 2025).

For orientation: IC50 means the point on the concentration scale where inhibition reaches its midpoint. A low value points to greater potency in that assay.

The subject of series [1] is MCF7 cells. Kind of series: MTT cytotoxicity assay, MCF7. The class given is cell-based, human. The conditions noted are these: 48 h of drug exposure. As for the experimental part:
(§1) The in vitro cytotoxicity of the Ti(IV) complexes under investigation was investigated using MTT, a micro-titration colorimetric method. The in vitro cytotoxicity test of the Ti(IV) complexes was evaluated against the cervical cancer cell line (HeLa), human breast cancer cell line (MCF-7) and human kidney normal cell line (HEK-293).[65,66]
(§2) In the cytotoxicity assay, tetrazolium salt 3-[4,5-dimethylthiazol-2-yl]-2,5diphenyl tetrazolium bromide (MTT) was utilized to assess cell viability. The MTT powder was diluted in Dulbecco's PBS (stock solution of MTT (5 mg mL^−1)) to attain a final concentration of 0.5 mg mL^−1 and a […] was used to filter and sterilize the stock solution, which was then kept at 2–6 °C. In metabolically active cells, MTT is reduced to produce an insoluble purple formazan product. In the exponential phase, cells were taken out of the stored cultures after the 48-hour recovery period, following seeding onto 96-well plates at a density of 1 × 10^4 cells per well in 100 μL medium at 37 °C in a 95% air and 5% CO2 environment, and the cells were incubated for 12 hours. Cell lines were treated for 48 hours with Ti(IV) complexes at varying doses (9.5–300 μM) and cis-platin as a control (apart from normal cells). After 48 hours of incubation at 37 °C, the medium was removed and 100 μL of DMSO was added to dissolve the […], and the culture plates were shaken for five minutes. A Bio-Rad xMARK™ multi-well plate reader was used to measure the absorbance of each well at 570 nm. Using eqn (2), the percentage viability, which represents the relative viability of the treated cells in comparison to the control cells, was calculated, and the IC50 values and standard deviation of the substances under investigation were calculated in triplicate.2 [drawing 2]
(§3) An MTT assay was used to examine the cytotoxic effectiveness of the produced Ti(IV) complexes. After 48 hours of incubation, the cytotoxicity of Ti-1-IS to Ti-6-IBr was evaluated against human cancer cell lines, such as breast carcinoma (MCF7) and cervical cancer (HeLa), as well as the non-cancerous human embryonic kidney (HEK) cell line, by using the widely used therapeutic drug, cis-platin, as a positive control by following the standard protocol.

Series [2] has as its system HeLa cells. Kind of series: MTT cytotoxicity assay, HeLa. Conditions: for IC50: 48 h of drug exposure; for Selectivity: HeLa cell lines. The class given is cell-based, human. As for the experimental part: as §1, §2, §3
A general note: Tetrazolium assays rely on reduction of a dye to a coloured formazan, in cell work by metabolically active cells.

Series [3] addresses T1, BSA (Bos taurus, UniProt P02769).
T1 construct: purchased Himedia Chemicals
The experiment in a line: BSA site marker (ibuprofen, warfarin) fluorescence quenching. The class given is binding, bovine. The conditions noted are these: 298 K; for Kb binding constant, BSA+Ibuprofen: site probe ibuprofen; for Kb binding constant, BSA + Warfarin: site probe warfarin. As for the experimental part:
Fluorescence emission spectroscopy was used for site marker investigation, using an excitation wavelength of 280 nm. As they bind to the two most prevalent drug-binding sites, Sudlow sites I and II, two distinct site marker medications, warfarin (WAR) and ibuprofen (IBU), were utilized as particular site markers (probes) in this experiment. Separately, 10 mg of the site marker probes (WAR) and (IBU) were dissolved in PBS buffer. Subsequently, a known quantity of BSA was added to each probe stock solution to achieve a 5 mM concentration, and the mixture was maintained at 2 to 6 °C. The BSA + site marker binary solution was then titrated with different metal complex concentrations ranging from 0 to 80 μM, while maintaining constant binary solutions of BSA + IBU and BSA + WAR.[55,56]
In our experiment, fluorescence titration techniques were employed to determine the binding position of the BSA molecule. For the fluorescence titration, the excitation wavelength was […], and the emission was monitored between 300 and 500 nm where a fixed concentration of BSA (3 × 10^−6 M) and site markers (BSA + WAR) (BSA + IBU) were taken separately and titrated with the incremental addition of Ti-1-IS to Ti-6-IBr (0–100 μM). By comparing the Ksv values shown with and without site markers, the binding site of Ti(IV) complexes inside BSA was identified (ESI Table S3 ^†).
The Scatchard eqn (9) was used to examine the emission quenching data.

The test system of series [4] is CT-DNA. The experiment in a line: Agarose gel electrophoresis, CT-DNA cleavage. The class given is biochemical, calf. Conditions: complex at 3, 1.5 and 0.75 mM. As for the experimental part: The interaction and effectiveness of the Ti(IV) complex on CT-DNA were investigated using the agarose gel electrophoresis technique. This was accomplished by incubating the reaction mixtures separately, each of which contained 20 μL of CT-DNA and 20 μL of titanium complexes in PBS buffer solution, at 310 K for one hour. The tracking […] dye (1 μL) and all of the prepared solutions (5 μL) were then combined and applied to the wells of a 1% agarose gel containing 1 mM ethidium bromide that was prepared well in advance. Then the reaction mixture of complexes and CT-DNA was loaded in the wells separately using 0.25% […] dye. The electrophoresis mobility experiment was then carried out in an EDTA-PBS buffer for 60 minutes at a constant electrical voltage of 100 V until the dye reached 50% of the gel distribution area. In order to evaluate the degree of DNA binding capacity of the Ti(IV) complexes, the resultant bands were finally captured on a camera using the AXYGEN digital camera Gel Documentation System under UV light.[49–51]
There are two types of cleavage of nucleic acid chains: enzymatic and non-enzymatic. Either the oxidative cleavage of deoxyribose residues or the hydrolysis of phosphodiester links, known as hydrolytic cleavage, can result in non-enzymatic cleavage. Strong Lewis acidic metal complexes with transition metals are the main source of hydrolytic cleavage. The hydrolysis of the phosphate backbone of the nucleic acid is facilitated by a metal–phosphate intermediate. In order to understand the catalytic mechanisms of natural nucleases and to develop medications that target nucleic acids, it is crucial to design and synthesize metal complexes that can hydrolytically cleave the phosphodiester link. Agarose gel electrophoresis was used to test the capacity of the complex to cleave CT-DNA.

A short description of series [5]: n-Octanol/water partition coefficient, shake flask method. The class given is physicochemical. Conditions: partition coefficient of n-octanol/water. As for the experimental part:
Drugs were measured for oral bioavailability and cellular accumulation using their lipophilicity. This can be stated as the log P value of the n-octanol/water partition coefficient, which is an essential prerequisite for many in silico medicinal chemistry approaches. The n-octanol/water partition coefficient (log Po/w), where Po/w = the octanol/water partition coefficient, was analyzed using the shake flask method. The experimental log Po/w values of these complexes were discovered to be between 0.12 and 0.87 (ESI Fig. S60 ^† and Table 1).

Structures are written as SMILES.

T1 sequence (P02769 25-607): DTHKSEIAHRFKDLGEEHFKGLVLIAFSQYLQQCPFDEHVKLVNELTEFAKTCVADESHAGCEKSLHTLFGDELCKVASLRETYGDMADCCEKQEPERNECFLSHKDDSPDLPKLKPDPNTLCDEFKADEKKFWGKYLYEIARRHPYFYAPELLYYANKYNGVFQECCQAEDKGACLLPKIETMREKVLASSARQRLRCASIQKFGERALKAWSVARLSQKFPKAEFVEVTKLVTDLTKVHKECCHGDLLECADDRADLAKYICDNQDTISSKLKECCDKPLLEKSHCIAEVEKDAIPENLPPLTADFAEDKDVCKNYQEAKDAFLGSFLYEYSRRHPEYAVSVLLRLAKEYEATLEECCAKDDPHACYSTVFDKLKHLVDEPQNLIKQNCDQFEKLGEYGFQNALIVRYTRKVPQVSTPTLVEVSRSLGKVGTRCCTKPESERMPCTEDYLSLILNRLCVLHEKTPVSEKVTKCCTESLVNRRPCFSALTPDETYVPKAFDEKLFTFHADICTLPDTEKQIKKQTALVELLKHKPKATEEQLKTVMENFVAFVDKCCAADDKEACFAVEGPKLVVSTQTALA

In the case of `[O-]C(=NN=Cc1ccccc1[O-])c1ccncc1.[O-]C(=NN=Cc1ccccc1[O-])c1ccncc1.[Ti+4]` [Ti-1-IS], the midpoint of inhibition in series [1], the IC50, lay at 109.22 ± 0.1 µM. The molecule also displayed an IC50 in series [2] of 61.76 ± 0.1 µM. Further, in series [3], the “Kb binding constant, BSA+Ibuprofen” value was 340 M⁻¹ and the “Kb binding constant, BSA + Warfarin” value came out at 480 M⁻¹. In series [4], the DNA cleavage activity entry is on record as “less cleavage activity”. Besides, the “Log Po/w” value in series [5] was 0.87.
Turning to `[O-]C(=NN=Cc1c([O-])ccc2ccccc12)c1ccncc1.[O-]C(=NN=Cc1c([O-])ccc2ccccc12)c1ccncc1.[Ti+4]` [Ti-2-IN], the IC50 in series [1] turned out to be 85.04 ± 0.5 µM. In series [2], this molecule displayed an IC50 of 74.04 ± 0.5 µM. For the same molecule, in series [3], the “Kb binding constant, BSA+Ibuprofen” value is 150 M⁻¹ and the “Kb binding constant, BSA + Warfarin” value came to 690 M⁻¹. In addition, the DNA cleavage activity entry in series [4] was “less cleavage activity”. The “Log Po/w” value in series [5] is on record as 0.78.
For `COc1cccc(C=NN=C([O-])c2ccncc2)c1[O-].COc1cccc(C=NN=C([O-])c2ccncc2)c1[O-].[Ti+4]` [Ti-3-IO], the IC50 in series [1] came out at 102.9 ± 0.3 µM. In series [2], this molecule returned an IC50 of 27.2 ± 1.1 µM and a Selectivity of over 29. For the same molecule, in series [3], the “Kb binding constant, BSA+Ibuprofen” value amounted to 500 M⁻¹ and the “Kb binding constant, BSA + Warfarin” value is 580 M⁻¹. In addition, the DNA cleavage activity entry in series [4] is given as “higher DNA cleavage even at the lowest concentration”. The “Log Po/w” value in series [5] stood at 0.13.
As for `[O-]C(=NN=Cc1cc(F)ccc1[O-])c1ccncc1.[O-]C(=NN=Cc1cc(F)ccc1[O-])c1ccncc1.[Ti+4]` [Ti-4-IF], the concentration for half-maximal inhibition (IC50) in series [1] was 109.8 ± 0.2 µM; in series [2], 47.3 ± 0.5 µM. Besides, the “Kb binding constant, BSA+Ibuprofen” value in series [3] is 370 M⁻¹. Also, in series [3], the “Kb binding constant, BSA + Warfarin” value was found to be 400 M⁻¹. In addition, the DNA cleavage activity result in series [4] is given as “higher DNA cleavage even at the lowest concentration”. Moreover, the “Log Po/w” value in series [5] came to 0.12.
With `[O-]C(=NN=Cc1cc(Cl)ccc1[O-])c1ccncc1.[O-]C(=NN=Cc1cc(Cl)ccc1[O-])c1ccncc1.[Ti+4]` [Ti-5-ICl], in series [1], the IC50 stood at 65.2 ± 1.2 µM. In series [2], this molecule returned an IC50 of 24.2 ± 0.7 µM and a Selectivity of over 26. Further, in series [3], the “Kb binding constant, BSA+Ibuprofen” value turned out to be 350 M⁻¹ and the “Kb binding constant, BSA + Warfarin” value is 160 M⁻¹. In addition, the DNA cleavage activity entry in series [4] is recorded as “comparatively higher DNA binding cleavage in higher concentration”. The “Log Po/w” value in series [5] was determined as 0.31.
With `Brc1ccc2c(c1)C=NN=C(c1ccncc1)[O][Ti]1([O]C(c3ccncc3)=NN=Cc3cc(Br)ccc3[O]1)[O]2` (centres unmarked) [Ti-6-IBr], the IC50 in series [1] is 84.67 ± 0.5 µM. In series [2], the IC50 was determined as 78.64 ± 0.2 µM. In series [3], the “Kb binding constant, BSA+Ibuprofen” value worked out at 540 M⁻¹ and the “Kb binding constant, BSA + Warfarin” value is 390 M⁻¹. The DNA cleavage activity entry in series [4] is “comparatively higher DNA binding cleavage in higher concentration”. In addition, the “Log Po/w” value in series [5] worked out at 0.15.
